These results are taken from patent publication US4546176A, “7-Carboxymethoxyphenylacetamido-3-cephem derivatives and antibacterial preparations containing the same” (Eisai Co., Ltd., priority 1982, dated 1985).

≈ marks a conversion by molar mass, not a printed value. Where only a bound is given, the exact number is not on record here.

For one data set, the system named is Ser. marcescens ES-75. Kind of data set: Antibacterial activities (MIC), Ser. marcescens ES-75. It counts as cell-based. As to conditions: Serratia marcescens, ES75. From the text:
(§1) (1) Antibacterial activities (MIC):

Data set [1] in a line: Acute toxicity LD50 (mouse, oral). The settings on record: in vivo. The source says:
The acute toxicity values [LD50 (mouse, oral)] of the following compounds were each 4 g/kg or greater;

A further data set deals with Proteus morganii EP-14. Kind of data set: Antibacterial activities (MIC), Proteus morganii EP-14. Type of data set: cell-based. As to conditions: Morganella morganii, EP14.
Description: as §1

The subject of another data set is Staph. aureus 209-P. Kind of data set: Antibacterial activities (MIC), Staph. aureus 209-P. Type of data set: cell-based. As to conditions: Staphylococcus aureus.
Description: as §1

Data set [2] in a line: Urinary excretion rate in mice. Type of data set: in vivo, ICR male mice. The settings on record: mouse, sc, 20 mg/kg subcutaneous, urine up to 6 hours, bioassay. As for the experimental part:
ICR male mice (body weight: 20-30 g) were used. Each compound was dissolved in an M/15 phosphate buffer (pH 7.0) and administered in an amount of 20 mg/kg by the subcutaneous route. Urine was collected up to 6 hours after the administration. The concentration of the compound was determined by the bioassey technique (the agar-well method) using Pseudomonas aeruginosa as a test microorganism. On the basis of the thus-determined concentration, its excreted amount was obtained. The urinary excretion rate was then calculated from the excreted amount based on the amount administered.

The subject of a further data set is Kleb. pneumoniae EK-6. Nature of the data set: Antibacterial activities (MIC), Kleb. pneumoniae EK-6. Type of data set: cell-based. The settings on record: Klebsiella pneumoniae, EK6.
Description: as §1

The next data set has as its system Pseud. aeruginosa EP-01. Nature of the data set: Antibacterial activities (MIC), Pseud. aeruginosa EP-01. It counts as cell-based. As to conditions: Pseudomonas aeruginosa, EP01.
Description: as §1

In another data set the test system is Escher. coli NIHJ. Kind of data set: Antibacterial activities (MIC), Escher. coli NIHJ. Type of data set: cell-based. As to conditions: Escherichia coli.
Description: as §1

Another data set is described as follows: Solubility in water. It counts as physicochemical. The settings on record: in distilled water at 25° C.
The subject of another data set is Proteus vulgaris E-18. Nature of the data set: Antibacterial activities (MIC), Proteus vulgaris E-18 (lactamase producing). It counts as cell-based. As to conditions: E18; Proteus vulgaris E-18, lactamase producing bacteria.
Description: as §1
*Lactamase producing bacteria.

Consider `CO[C@@]1(NC(=O)[C@H](NC(=O)c2c(C)oc3cc(O)c(O)cc3c2=O)c2ccc(OCC(=O)O)cc2)C(=O)N2C(C(=O)O)=C(CSc3nnnn3CC(=O)O)CS[C@@H]21` [Example 25], for which the MIC – broadly, the lowest concentration that inhibits growth of the organism – in the data set with Ser. marcescens ES-75 was 0.1 µg/mL (≈ 0.121 µM); against Proteus morganii EP-14, 3.13 µg/mL (≈ 3.78 µM); against Staph. aureus 209-P it was 100 µg/mL (≈ 121 µM); in the data set on Kleb. pneumoniae EK-6 it was not above 0.05 µg/mL; in the data set on Pseud. aeruginosa EP-01 it was 0.4 µg/mL (≈ 0.483 µM); against Escher. coli NIHJ, 0.4 µg/mL (≈ 0.483 µM). This compound came in with an MIC in the data set on Proteus vulgaris E-18 of 0.4 µg/mL (≈ 0.483 µM). Moreover, the LD50 (usually the dose at which mortality reaches 50%) in [1] is not below 4000 mg/kg. The compound also yielded a dose excreted at 6 h in data set [2] of 20%. For the same compound, the solubility – broadly, how much of the substance goes into solution per volume – in the data set “Solubility in water” is not below 300 mg/mL.
Regarding `CO[C@@]1(NC(=O)[C@H](NC(=O)c2coc3cc(O)c(O)cc3c2=O)c2ccc(OCC(=O)O)cc2)C(=O)N2C(C(=O)O)=C(CSc3nnnn3CC(=O)O)CS[C@@H]21` [Example 30, Trisodium 7β-[D-2-(4-carboxymethoxyphenyl)-2-(6,7-dihydroxy-4-oxo-4H-1-benzopyran-3-carboxamido)-acetamido]-7α-methoxy-3-(1-carboxymethyl-5-tetrazolyl)-thiomethyl-3-cephem-4-carboxylate], the MIC is 0.2 µg/mL against Ser. marcescens ES-75; 6.25 µg/mL with Proteus morganii EP-14; 100 µg/mL with Staph. aureus 209-P; not above 0.05 µg/mL against Kleb. pneumoniae EK-6; 0.4 µg/mL in the data set with Pseud. aeruginosa EP-01; 0.8 µg/mL in the data set on Escher. coli NIHJ. For the same compound, inhibition of growth against Proteus vulgaris E-18 (MIC) required 0.8 µg/mL. The LD50 in [1] is not below 4000 mg/kg.
`CO[C@@]1(NC(=O)[C@H](NC(=O)c2c(C)oc3cc(O)c(O)cc3c2=O)c2ccc(OCC(=O)O)cc2)C(=O)N2C(C(=O)[O-])=C(C[n+]3ccccc3)CS[C@@H]21` [Example 48, Sodium 7β-[D-2-(4-carboxymethoxyphenyl)-2-(6,7-dihydroxy-2-methyl-4-oxo-4H-1-benzopyran-3-carboxamido)acetamido]-7α-methoxy-3-pyridiniummethyl-3-cephem-4-carboxylate]: the minimum inhibitory concentration (MIC) was 0.1 µg/mL in the data set on Ser. marcescens ES-75; 6.25 µg/mL with Proteus morganii EP-14; 100 µg/mL with Staph. aureus 209-P; not above 0.05 µg/mL in the data set with Kleb. pneumoniae EK-6; 0.2 µg/mL against Pseud. aeruginosa EP-01; 0.2 µg/mL in the data set with Escher. coli NIHJ. In the data set on Proteus vulgaris E-18, this compound gave a minimum inhibitory concentration (MIC) of 1.56 µg/mL. The compound further returned an LD50 in [1] not below 4000 mg/kg. The dose excreted at 6 h in data set [2] was 45%. Moreover, the solubility in the data set “Solubility in water” is not below 300 mg/mL.
Take `CO[C@@]1(NC(=O)[C@H](NC(=O)c2c(C)oc3cc(O)c(O)cc3c2=O)c2ccc(OCC(=O)O)cc2)C(=O)N2C(C(=O)[O-])=C(C[n+]3ccc(C(N)=O)cc3)CS[C@@H]21` [Example 50, Sodium 7β-[D-2-(4-carboxymethoxyphenyl)-2-(6,7-dihydroxy-2-methyl-4-oxo-4H-1-benzopyran-3-carboxamido)acetamido]-7α-methoxy-3-(4-carbamoylpyridinium)methyl-3-cephem-4-carboxylate]: the MIC in the data set with Ser. marcescens ES-75 came to 0.8 µg/mL; in the data set on Proteus morganii EP-14, 12.5 µg/mL; against Staph. aureus 209-P it was 100 µg/mL; against Kleb. pneumoniae EK-6 it was 0.1 µg/mL; in the data set on Pseud. aeruginosa EP-01 it was 0.4 µg/mL; in the data set on Escher. coli NIHJ, 1.56 µg/mL. This compound returned a minimal inhibitory concentration (MIC) in the data set on Proteus vulgaris E-18 of 3.13 µg/mL. Moreover, the median lethal dose (LD50) in data set [1] was not below 4000 mg/kg. Besides, the solubility in “Solubility in water” was not below 300 mg/mL.
`CO[C@@]1(NC(=O)[C@H](NC(=O)c2coc3cc(O)c(O)cc3c2=O)c2ccc(OCC(=O)O)cc2)C(=O)N2C(C(=O)[O-])=C(C[n+]3ccc(C(N)=O)cc3)CS[C@@H]21` [Example 51, Sodium 7β-[D-2-(4-carboxymethoxyphenyl)-2-(6,7-dihydroxy-4-oxo-4H-1-benzopyran-3-carboxamido)-acetamido]-7α-methoxy-3-(4-carbamoylpyridinium)-methyl-3-cephem-4-carboxylate]: the MIC with Ser. marcescens ES-75 is 0.8 µg/mL; against Proteus morganii EP-14, 25 µg/mL; in the data set on Staph. aureus 209-P, 50 µg/mL; against Kleb. pneumoniae EK-6, not above 0.05 µg/mL; in the data set with Pseud. aeruginosa EP-01 it was 0.4 µg/mL; with Escher. coli NIHJ it was 1.56 µg/mL. This compound also registered an MIC in the data set on Proteus vulgaris E-18 of 3.13 µg/mL. The compound further gave a dose excreted at 6 h in [2] of 16%. In the data set “Solubility in water”, this compound yielded a solubility not below 300 mg/mL.
